From PubChem BioAssay AID270 (DTP/NCI, 2004)
“And” between values parts separate entries of the source, which are not always exact repeats. Equal entries are not always repeated. Records with an inconclusive call do not appear.

Tested on: BDF1 mice, s.c. Lewis lung carcinoma, T/C %
Assay: NCI In Vivo Anticancer Drug Screen. Data for tumor model Lewis Lung Carcinoma (subcutaneous) in B6D2F1 (BDF1) mice
In short: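 The value reflects a ratio in which the treated cohort's survival time or tumour size is compared against mice receiving only vehicle.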

O=C(O)CC(NC(=O)CP(=O)(O)O)C(=O)O.[NH-]C1CCCCC1[NH-].[Pt+2] (centres undefined)
T/C (endpoint: median survival time, dose: 2.0 mg/kg/injection, schedule: Q01DX009 (ip), vehicle: other, higher = longer survival): 90 % of control | T/C (endpoint: median survival time, dose: 4.0 mg/kg/injection, schedule: Q01DX009 (ip), vehicle: other, higher = longer survival): 92 % of control | T/C (endpoint: median survival time, dose: 6.0 mg/kg/injection, schedule: Q01DX009 (ip), vehicle: other, higher = longer survival): 95 % of control | T/C (endpoint: median survival time, dose: 6.0 mg/kg/injection, schedule: Q04DX003 (ip), vehicle: other, higher = longer survival): 102 % of control | T/C (endpoint: median survival time, dose: 8.0 mg/kg/injection, schedule: Q01DX009 (ip), vehicle: other, higher = longer survival): 96 % of control | T/C (endpoint: median survival time, dose: 12.0 mg/kg/injection, schedule: Q04DX003 (ip), vehicle: other, higher = longer survival): 100 % of control | T/C (endpoint: median survival time, dose: 18.0 mg/kg/injection, schedule: Q04DX003 (ip), vehicle: other, higher = longer survival): 88 % of control | T/C (endpoint: median survival time, dose: 24.0 mg/kg/injection, schedule: Q04DX003 (ip), vehicle: other, higher = longer survival): 102 % of control

Cc1ncc([N+](=O)[O-])n1CCO
T/C (endpoint: median survival time, dose: 37.5 mg/kg/injection, schedule: Q01DX009 (ip), vehicle: Klucel (hydroxypropylcellulose) (HPC), higher = longer survival): 98 % of control | T/C (endpoint: median survival time, dose: 37.5 mg/kg/injection, schedule: Q04DX003 (ip), vehicle: Klucel (hydroxypropylcellulose) (HPC), higher = longer survival): 92 % of control | T/C (endpoint: median survival time, dose: 75.0 mg/kg/injection, schedule: Q01DX009 (ip), vehicle: Klucel (hydroxypropylcellulose) (HPC), higher = longer survival): 106 % of control | T/C (endpoint: median survival time, dose: 75.0 mg/kg/injection, schedule: Q04DX003 (ip), vehicle: Klucel (hydroxypropylcellulose) (HPC), higher = longer survival): 97 % of control | T/C (endpoint: median survival time, dose: 150.0 mg/kg/injection, schedule: Q01DX009 (ip), vehicle: Klucel (hydroxypropylcellulose) (HPC), higher = longer survival): 96 % of control | T/C (endpoint: median survival time, dose: 150.0 mg/kg/injection, schedule: Q04DX003 (ip), vehicle: Klucel (hydroxypropylcellulose) (HPC), higher = longer survival): 96 % of control | T/C (endpoint: median survival time, dose: 300.0 mg/kg/injection, schedule: Q01DX009 (ip), vehicle: Klucel (hydroxypropylcellulose) (HPC), higher = longer survival): 97 % of control | T/C (endpoint: median survival time, dose: 300.0 mg/kg/injection, schedule: Q04DX003 (ip), vehicle: Klucel (hydroxypropylcellulose) (HPC), higher = longer survival): 100 % of control | T/C (endpoint: median survival time, dose: 600.0 mg/kg/injection, schedule: Q01DX009 (ip), vehicle: Klucel (hydroxypropylcellulose) (HPC), higher = longer survival): 105 % of control | T/C (endpoint: median survival time, dose: 600.0 mg/kg/injection, schedule: Q04DX003 (ip), vehicle: Klucel (hydroxypropylcellulose) (HPC), higher = longer survival): 91 % of control

CC(=O)Nc1ccc2nc3ccc(NC(C)=O)cc3[n+](-c3ccccc3)c2c1
T/C (endpoint: mean tumor weight, dose: 12.5 mg/kg/injection, schedule: Q01DX011 (ip), vehicle: saline, higher = larger tumour): 61 % of control | T/C (endpoint: mean tumor weight, dose: 25.0 mg/kg/injection, schedule: Q01DX011 (ip), vehicle: saline, higher = larger tumour): 79 % of control | T/C (endpoint: mean tumor weight, dose: 50.0 mg/kg/injection, schedule: Q01DX011 (ip), vehicle: saline, higher = larger tumour): 59 % of control

CN(N=O)C(=O)N[C@@H](C=O)[C@@H](O)[C@H](O)[C@H](O)CO
T/C (endpoint: mean tumor weight (est.), dose: 20.0 mg/kg/injection, schedule: Q01DX009 (ip), vehicle: water, higher = larger tumour): 93 % of control | T/C (endpoint: mean tumor weight (est.), dose: 40.0 mg/kg/injection, schedule: Q01DX009 (ip), vehicle: water, higher = larger tumour): 65 % of control | T/C (endpoint: mean tumor weight (est.), dose: 80.0 mg/kg/injection, schedule: Q01DX009 (ip), vehicle: water, higher = larger tumour): 42 % of control | T/C (endpoint: median survival time, dose: 20.0 mg/kg/injection, schedule: Q01DX009 (ip), vehicle: water, higher = longer survival): 115 % of control | T/C (endpoint: median survival time, dose: 40.0 mg/kg/injection, schedule: Q01DX001 (ip), vehicle: other, higher = longer survival): 99 % of control and 105 % of control | T/C (endpoint: median survival time, dose: 40.0 mg/kg/injection, schedule: Q01DX001 (ip), vehicle: saline, higher = longer survival): 86 % of control | T/C (endpoint: median survival time, dose: 40.0 mg/kg/injection, schedule: Q01DX009 (ip), vehicle: water, higher = longer survival): 94 % of control | T/C (endpoint: median survival time, dose: 80.0 mg/kg/injection, schedule: Q01DX001 (ip), vehicle: other, higher = longer survival): 90 % of control and 108 % of control | T/C (endpoint: median survival time, dose: 80.0 mg/kg/injection, schedule: Q01DX001 (ip), vehicle: saline, higher = longer survival): 94 % of control | T/C (endpoint: median survival time, dose: 160.0 mg/kg/injection, schedule: Q01DX001 (ip), vehicle: other, higher = longer survival): 98 % of control and 111 % of control | T/C (endpoint: median survival time, dose: 160.0 mg/kg/injection, schedule: Q01DX001 (ip), vehicle: saline, higher = longer survival): 108 % of control | T/C (endpoint: median survival time, dose: 320.0 mg/kg/injection, schedule: Q01DX001 (ip), vehicle: other, higher = longer survival): 99 % of control | T/C (endpoint: median survival time, dose: 320.0 mg/kg/injection, schedule: Q01DX001 (ip), vehicle: saline, higher = longer survival): 91 % of control
